According to patent US20250170237A1, “MURAMYL DIPEPTIDES AND PROCESS FOR PREPARATION THEREOF” (priority 2022, published 2025):

What was measured:
splenocytes = experiment: Post JEV immunization In vivo splenocyte proliferation assay; parameters: species or system BALB/c mice
Procedure: Splenocytes were seeded into 96-well flat-bottom microtiter plates having 1×10^5 cells/well in […] complete RPMI-1640 medium. Plates were incubated at 37° C. with 5% CO2. After 48 h, […] MTT solution (5 mg/mL) was added to each well and left to incubate for next 4 h. Untransformed MTT ([…]) was removed from each well by pipetting. A total of […] of DMSO was added and the absorbance was evaluated in an ELISA reader at 630 nm on the multimode reader (Infinite 200 Pro, Switzerland) after 15 min

[1] = test system: cytokines IL-1, IL-2, IL-4, IFN, IL-6, IL-10, IL-12, TNF; experiment: Post JEV immunization In vivo cytokine assay; parameters: species or system BALB/c mice
Procedure: (§1) ELISA was carried out by Bio Legend capture and detection antibodies. Briefly, 96-well plates were coated with capture antibody dissolved in coating buffer per well incubated overnight at 4° C. Wells were blocked with BSA for 1 h at RT. After blocking, 50 μL/well of serum was added and incubated for 3 h. After washing, Biotinylated secondary antibody was added along with enzyme. Plates were incubated for 1 h at RT. Then plates were washed and TMB substrate solution was added. The reaction was stopped after 30 min with a stopping solution. Absorbance was measured at 450 nm with a plate reader.

[2] = test system: antigens (OVA, HBsAg, DENV and JEV); experiment: Serum anti-antigens (OVA, HBsAg, DENV and JEV) IgG titer, overall statements; format: in vivo, BALB/c mice; settings: 15b against Ovalbumin, DEV, 15f against JEV
Procedure: (§2) Adjuvanticity of 15b was evaluated using antigens (OVA, HBsAg, DENV and JEV) in BALB/c mice model—From the immunized mice retro-orbital sampling or retro-orbital blood was collected on 14th and 28th day before sacrifice. Serum was separated by centrifugation at 12,500 rpm for 5 min. Transferred to a clean centrifuge tube and store at −80 until used.
(§3) The plates were coated with antigen in carbonate buffer. Plates were incubated at 4° C. overnight. They were then washed 3 times with PBS/Tween, and non-specific binding sites were blocked by adding 200 μl of blocking solution. Plates were incubated at room temperature for 1 h. Then 3 times wash is done, diluted standards and samples to desired concentrations in blocking solution were added to the plates. Incubate at 37° C. for 1 h or at 4° C. overnight. Plates were washed 3 times with PBS/Tween. Avidin-Horseradish Peroxidase (Av-HRP) was diluted and added. Incubated at room temperature for 30 min. Plates were washed 3 times with PBS/Tween. OPD Substrate was added and plates were incubated at room temperature (4-30 min) for colour development. The colour reaction was stopped by adding 50 μl of stop solution. Optical density (OD) was read at 492 nm.

In vitro Hemolysis assay = settings: for toxicity and hemolysis, conclusion in words: even at higher concentrations
JEV antigen = experiment: IgG titer with JEV antigen; format: in vivo, BALB/c mice
Procedure: as §2, §3

[3] = test system: cytokines IFN, IL-1, IL-4, IL-6, IL-10; experiment: Post HBsAg immunization In vivo cytokine assay; parameters: species or system BALB/c mice
Procedure: as §1

HBsAg antigen = experiment: IgG titer with HBsAg antigen; format: in vivo, BALB/c mice
Procedure: as §2, §3

CD4, CD8 [4] = experiment: Post HBsAg immunization Immunophenotyping; format: in vivo, BALB/c mice
Procedure: (§4) Staining for extracellular markers Staining was as per the manufacturer's protocol and run on a BD FACS Verse flow cytometer. Compensation was established using BD Biosciences compensation beads. Post-acquisition flow cytometry analysis was performed using FACS Suite software.

[5] = test system: CD4, CD8, CD19, CD80, CD 28; experiment: Post Denv immunization Immunophenotyping; format: in vivo, BALB/c mice
Procedure: as §4

CD4, CD8 [6] = experiment: Post JEV immunization Immunophenotyping; format: in vivo, BALB/c mice
Procedure: as §4

OVA antigen = experiment: IgG titer with OVA antigen (indirect ELISA, immunized mice); format: in vivo, BALB/c mice
Procedure: as §2, §3

[7] = dose 10 μg, UT = 100 (Table 15)

## C[C@H](NC(=O)[C@@H](C)O[C@H]1[C@H](O)[C@@H](CO)OC(O)[C@@H]1NC(=O)C1CC1)C(=O)N[C@H](CCC(=O)O)C(N)=O (stereo partly drawn) [15b, (4R)-5-amino-4-((2S)-2-((2R)-2-(((3R,4R, 5S, 6R)-3-(cyclopropanecarboxamido)-2,5-dihydroxy-6-(hydroxymethyl)tetrahydro-2H-pyran-4-yl)oxy)propanamido)propanamido)-5-oxopentanoic acid]
splenocytes; dose 1 μg, UT = 100 (Table 15)
  Splenocyte proliferation, Con A: 117.5-119.48
  Splenocyte proliferation, LPS: 118.2-120.01
  Splenocyte proliferation, Normal: 118.6-120.48
  Splenocyte proliferation, Restimulated: 116.5-119.27
splenocytes; [7]
  Splenocyte proliferation, Con A: 124.55-126.85
  Splenocyte proliferation, LPS: 104.6-109.57
  Splenocyte proliferation, Normal: 111.38-115.78
  Splenocyte proliferation, Restimulated: 114.2-117.24
[1]; dose 1 μg (Table 14)
  IFN: 4.21 to 6.37 pg/mL
  IL-2: 13.77 to 19.81 pg/mL
  IL-6: 157.05 to 160.47 pg/mL
  IL-10: 48 to 51.02 pg/mL
[1]; dose 10 μg (Table 14)
  IFN: 11.03 to 13.05 pg/mL
  IL-1: 61.9 to 67.25 pg/mL
  IL-2: 12.17 to 15.34 pg/mL
  IL-6: 233.3 to 245.27 pg/mL
  IL-10: 52.3 to 54.28 pg/mL
[1]; dose 100 μg (Table 14)
  IFN: 3.06 to 6.48 pg/mL
  IL-1: 70.1 to 73.48 pg/mL
  IL-2: 23.97 to 27.45 pg/mL
  IL-6: 279.85 to 281.47 pg/mL
  IL-10: 57.5 to 59.48 pg/mL
[2]
  antibody titer, conclusion in words: significant antibody titer
In vitro Hemolysis assay; erythrocytes (red blood cells)
  % Hemolysis: 2.302 ± 0.147%
In vitro Hemolysis assay
  toxicity and hemolysis, conclusion in words: non-toxic and non-hemolytic
JEV antigen; dose 1 μg (Table 13)
  IgG titer with JEV antigen: 64000-128000
JEV antigen; dose 10 μg (Table 13)
  IgG titer with JEV antigen: 8000-16000
JEV antigen; dose 100 μg (Table 13)
  IgG titer with JEV antigen: 40000-80000
[3]; dose 1 μg
  IFN: 80.6 pg/mL
[3]; dose 10 μg
  IFN: 75.07 pg/mL
[3]; dose 100 μg
  IFN: 68.6 pg/mL
HBsAg antigen; dose 1 μg
  IgG titer with HBsAg antigen: 51200-102400
HBsAg antigen; dose 10 μg
  IgG titer with HBsAg antigen: 102400-240000
CD4, CD8 [4]; dose 1 μG
  CD4: 24.48-29.48
  CD8: 12.71-19.48
CD4, CD8 [4]; dose 10 μG
  CD4: 25.47-29.48
  CD8: 12.67-18.54
[5]; dose 1 μG
  CD4: 36.26-41.8
  CD8: 22.26-29.48
  CD19: 30.57-35.48
  CD 28: 3.65-7.48
  CD80: 6.3-8.4
[5]; dose 10 μG
  CD4: 38.74-43.84
  CD8: 22.92-27.84
  CD19: 36.19-41.28
  CD 28: 3.68-8.41
  CD80: 6.11-11.4
CD4, CD8 [6]; dose 1 μG
  CD4: 39.75-42.58
  CD8: 14.56-19.54
CD4, CD8 [6]; dose 10 μG
  CD4: 41.86-43.28
  CD8: 14.78-17.25
OVA antigen; dose 1 μg
  IgG titer with OVA antigen: 1600-124000
OVA antigen; dose 10 μg
  IgG titer with OVA antigen: 204800-416000
OVA antigen; dose 100 μg
  IgG titer with OVA antigen: 115000-320000

## CCCCCCCCCCCCCC(=O)OCCCCCCCC(=O)N[C@H]1C(O)O[C@H](CO)[C@@H](O)[C@@H]1O[C@H](C)C(=O)N[C@@H](C)C(=O)N[C@H](CCC(=O)O)C(N)=O (stereo partly drawn) [15f, (4R)-5-amino-4-((2S)-2-((2R)-2-(((3R,4R,5S,6R)-2,5-dihydroxy-6-(hydroxymethyl)-3-(8-(tetradecanoyloxy)octanamido)tetrahydro-2H-pyran-4-yl)oxy)propanamido)propanamido)-5-oxopentanoic acid]
splenocytes; dose 5 μG (Table 25)
  Splenocyte proliferation, Con A: 125-141
  Splenocyte proliferation, JEV: 139-147
  Splenocyte proliferation, LPS: 124-134
splenocytes; dose 20 μG (Table 25)
  Splenocyte proliferation, Con A: 134-142
  Splenocyte proliferation, JEV: 149-162
  Splenocyte proliferation, LPS: 128-137
splenocytes; dose 50 μG (Table 25)
  Splenocyte proliferation, Con A: 245-264
  Splenocyte proliferation, LPS: 184-192
[1]; dose 5 μG (Table 24)
  TNF: 624 to 654 pg/mL
[1]; dose 5 μG (Tables 22, 24)
  IL-1: 745 to 845 pg/mL
  IL-2: 41 to 52 pg/mL
  IL-4: 134 to 155 pg/mL
  IL-10: 243 to 294 pg/mL
  IL-12: 124 to 147 pg/mL
[1]; dose 20 μG (Table 24)
  TNF: 898 to 942 pg/mL
[1]; dose 20 μG (Tables 22, 24)
  IL-1: 1059 to 1124 pg/mL
  IL-2: 52 to 64 pg/mL
  IL-4: 138 to 146 pg/mL
  IL-10: 398 to 421 pg/mL
  IL-12: 175 to 194 pg/mL
[1]; dose 50 μG (Table 24)
  TNF: 1024 to 1124 pg/mL
[1]; dose 50 μG (Tables 22, 24)
  IL-1: 1487 to 1634 pg/mL
  IL-2: 69 to 76 pg/mL
  IL-4: 148 to 164 pg/mL
  IL-10: 424 to 487 pg/mL
  IL-12: 136 to 147 pg/mL
[2]
  antibody titer, conclusion in words: significant antibody titer
In vitro Hemolysis assay
  toxicity and hemolysis, conclusion in words: non-toxic and non-hemolytic
JEV antigen; dose 5 μG (Table 21)
  IgG titer with JEV antigen: 80000-160000
JEV antigen; dose 20 μG (Table 21)
  IgG titer with JEV antigen: 160000-640000
JEV antigen; dose 50 μG (Table 21)
  IgG titer with JEV antigen: 640000-9560000
OVA antigen; dose 1 μg
  IgG titer with OVA antigen: 8000-25400
OVA antigen; dose 10 μg
  IgG titer with OVA antigen: 5000-41600
OVA antigen; dose 100 μg
  IgG titer with OVA antigen: 200000-960000
